From patent publication US20050096360A1, “Inhibitors of semicarbazide-sensitive amine oxidase (SSAO) and VAP-1 mediated adhesion useful for treatment of diseases” (priority 2003, published 2005)
pIC50: −log10 of the molar value. Where a name gives a salt, the structure may show the parent alone. Read-outs that look alike come from different tables or passages of the source.

Tests used:
[1] = biological target: T1, SSAO (bovine plasma amine oxidase, PAO) (Bos taurus, UniProt Q29437); assay: In vitro inhibition of SSAO activity, coupled colorimetric method; type: biochemical; conditions: 30 min preincubation, benzylamine substrate; read-out: SSAO Inhibitory Activity IC50
T1 construct: Bovine plasma amine oxidase (PAO) was purchased from Worthington Biochemical; purchased Worthington Biochemical (Lakewood, N.J.)
T1 sequence (Q29437 17-762): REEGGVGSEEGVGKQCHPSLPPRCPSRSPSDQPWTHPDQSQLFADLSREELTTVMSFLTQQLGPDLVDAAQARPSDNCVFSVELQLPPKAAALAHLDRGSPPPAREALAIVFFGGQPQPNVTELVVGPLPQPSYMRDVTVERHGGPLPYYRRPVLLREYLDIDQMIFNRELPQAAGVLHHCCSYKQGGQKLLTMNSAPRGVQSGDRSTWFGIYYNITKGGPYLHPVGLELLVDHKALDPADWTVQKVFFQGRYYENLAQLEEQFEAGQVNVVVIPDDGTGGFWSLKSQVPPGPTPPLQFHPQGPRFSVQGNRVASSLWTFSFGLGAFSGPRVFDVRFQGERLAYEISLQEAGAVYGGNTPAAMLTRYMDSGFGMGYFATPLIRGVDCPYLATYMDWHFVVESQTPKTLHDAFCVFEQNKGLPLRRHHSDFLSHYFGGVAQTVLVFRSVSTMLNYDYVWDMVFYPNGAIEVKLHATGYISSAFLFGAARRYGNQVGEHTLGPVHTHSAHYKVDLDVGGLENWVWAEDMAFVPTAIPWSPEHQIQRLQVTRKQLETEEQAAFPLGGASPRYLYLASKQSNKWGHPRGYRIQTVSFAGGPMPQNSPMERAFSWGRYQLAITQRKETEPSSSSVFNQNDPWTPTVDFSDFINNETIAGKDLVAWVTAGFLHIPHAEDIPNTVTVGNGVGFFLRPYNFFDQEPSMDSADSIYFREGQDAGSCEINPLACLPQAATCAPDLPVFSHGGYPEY
Description: SSAO activity was measured using the coupled colorimetric method essentially as described for monoamine oxidase and related enzymes (Holt A. et al. (1997) Anal. Biochem. 244:384). Bovine plasma amine oxidase (PAO) was purchased from Worthington Biochemical (Lakewood, N.J.) and used as a source of SSAO for activity measurements. The SSAO assay was performed in 96 well microtitre plates as follows. A pre-determined amount of inhibitor diluted in 0.2 M potassium phosphate buffer, pH 7.6, was added to each well, if required. The amount of inhibitor varied in each assay but was generally at a final concentration of between 10 nM and 10 μM. Controls lacked inhibitor. In order to study the effects of potential inhibitors 50 μl of inhibitor solution were preincubated for 30 min at 37° C. with 0.4 mU of PAO in an a total volume of 130 μl of 0.2 M potassium phosphate buffer pH 7.6. Assays were then started by addition of 20 μl 10 mM benzylamine substrate and incubated for 20 min at 37° C. The following reagents were then added to a final reaction volume of 200 μl, 50 μl of freshly made chromogenic solution containing […] vanillic acid (Sigma # V-2250), […] 4-aminoantipyrine (Sigma # A-4328) and 12 U/ml horseradish peroxidase (Sigma # P-8250) in order to cause a change of 0.5 OD A490 per hour. This was within the linear response range of the assay. The plates were incubated for 1 hr at 37° C. and the increase in absorbance, reflecting SSAO activity, was measured at 490 nm using a microplate spectrophotometer (Power Wave 40, Bio-Tek Inst.). Inhibition was presented as percent inhibition compared to control after correcting for background absorbance and IC50 values calculated using GraphPad Prism software.

[2] = tested on: SSAO; assay: IC100 concentrations of SSAO inhibitors used in the adhesion assay; type: biochemical; conditions: FIG. 7 legend
Text: FIG. 7 depicts the effect of blockage of SSAO/VAP-1 on binding between peripheral blood mononuclear cells (PBMCs) and high endothelial cells (HEC). FIG. 7A is a control experiment showing the effect of various compounds used for treatment on the adhesion of PBMCs to mock-transfected high endothelial cells; a non-treated control is included for comparison (MNT). FIG. 7B is a control experiment showing the effect of various compounds used for treatment on the adhesion of PBMCs to high endothelial cells transfected with VAP-1; a non-treated control is included for comparison (VNT).
These studies were repeated using the adhesion assay as described above to evaluate the inhibitors of the invention. Adhesion blockers used included an anti-human VAP-1 monoclonal antibody (Serotec, Oxford, UK), neuramidase (a sialidase, because SSAO/VAP-1 is a sialoglycoprotein; Sigma), and several function-blocking antibodies to rat adhesion molecules (CD31-PECAM, CD54-ICAM-1, […]-P Selectin). […] Antibodies (10 μg/ml) and neuramidase (5 mU) were incubated with the HECs for 30 min at 37° C.; excess antibody was washed away prior to the addition of the labeled PBMCs. Small-molecule inhibitors were pre-incubated the same way at IC100 concentrations, but the amounts present in the supernatant were not washed away to preserve the IC100 concentration during the adhesion step.

[3] = Acute toxicity studies in mice; type: in vivo; conditions: female, C57B1/6, mouse, in vivo, Day 7 values
Description: (§1) Intraperitoneal (i.p.) and intravenous (i.v.) LD50 values for the compounds of Examples 8 and 10, as well as mofegiline, the allylamine compound described in Example 18, were determined in mice. Six-week old C57B1/6 female mice were divided in groups of five and administered a single i.p or i.v. injection of compound dissolved in PBS (10-100 mg/kg in 100 ul i.v.; 30-500 mg/kg in 200 ul i.p.). Control groups were administered the same volume of PBS i.p. or i.v. Appearance and overt behavior were noted daily, and body weight was measured before compound administration (Day 1) and on Days, 3, 5 and 7. After seven days, animals were euthanized and their liver, spleen and kidneys weighted.
(§2) Acute toxicity effects for mofegiline included tremors (40 mg/kg i.v.; 100 mg/kg i.p.) and clonic convulsions and labored breathing (100 mg/kg i.v.; 200 mg/kg i.p.). […] All deaths occurred within 24 hours after drug administration. […] Thus, there is no indication of the cause of death for any of the compounds tested.

[4] = tested on: C57B1/6 female mice; assay: Acute toxicity studies in mice; type: in vivo; conditions: for acute toxicity effects observed: 100 mg/kg i.v.; for dose causing convulsions and labored breathing: i.p. (see Table 2)
Description: as §1, §2

[5] = ip, single i.p. injection, read-out: LD50 intraperitoneal
[6] = iv, single i.v. injection, read-out: LD50 intravenous

Row | SMILES | pIC50 [1] | IC100 (SSAO) [2] | LD50 at 7 days [3, 5] | LD50 at 7 days [3, 6] | acute toxicity effects observed [4] | dose causing convulsions and labored breathing [4]
1 | C=C(CNN)c1ccccc1 [Example 2, Hydrochloride] | 7.46 | 150 nM |  |  |  | 
2 | C=C(CNN)c1ccc(F)cc1.Cl [Example 8, N-[2-(4′-fluorophenyl)-allyl]-hydrazine Hydrochloride] | 7.49 | 250 nM | 350 mg/kg | > 100 mg/kg | only tremor | greater than 350 mg/kg
3 | Cl.NNC/C(=C/F)c1ccccc1 [Example 10, (E)-1-fluoro-2-phenyl-3-hydrazinopropene Hydrochloride] | 7.19 |  | 250 mg/kg | > 100 mg/kg | only tremor | greater than 250 mg/kg
